{"source": "ChEMBL document CHEMBL4376820", "about": "“Homodimeric Tobramycin Adjuvant Repurposes Novobiocin as an Effective Antibacterial Agent against Gram-Negative Bacteria” (J Med Chem, 2019)", "key": {"Acinetobacter baumannii [1]": {"tested_on": "Acinetobacter baumannii", "assay": "Potentiation of novobiocin-induced antibacterial activity against Acinetobacter baumannii 110193 clinical isolate assessed as fold reduction in novobiocin MIC incubated for 18 hrs by CLSI protocol based assay relative to novobiocin MIC", "assay_type": "functional"}, "Acinetobacter baumannii [2]": {"tested_on": "Acinetobacter baumannii", "assay": "Antibacterial activity against novobiocin and test compound-resistant Acinetobacter baumannii ATCC 17978 mutant generated from seven serial passages in presence of novobiocin by checkerboard assay", "assay_type": "functional"}, "Pseudomonas aeruginosa [3]": {"tested_on": "Pseudomonas aeruginosa", "assay": "Bactericidal activity against Pseudomonas aeruginosa PAO1 assessed as log reduction in colony forming units per ml at 7.1 uM in LB media after 24 hrs in presence of 50.4 uM novobiocin by time-kill assay", "assay_type": "functional"}, "Pseudomonas aeruginosa [4]": {"tested_on": "Pseudomonas aeruginosa", "assay": "Synergistic antibacterial activity against wild type Pseudomonas aeruginosa PAO1 assessed as potentiation of ciprofloxacin-induced antibacterial effect incubated for 18 hrs by checkerboard assay", "assay_type": "functional, organism-based"}, "Acinetobacter baumannii [5]": {"tested_on": "Acinetobacter baumannii", "assay": "Antibacterial activity against wild type Acinetobacter baumannii ATCC 17978 assessed as resistant development at 7.1 uM measured after 5 days of passaging in presence of novobiocin by microbroth dilution method relative to control", "assay_type": "functional"}, "Pseudomonas aeruginosa [6]": {"tested_on": "Pseudomonas aeruginosa", "assay": "Potentiation of novobiocin-induced antibacterial activity against carbapenem and colistin-resistant Pseudomonas aeruginosa 114228 clinical isolate assessed as novobiocin MIC at <= 7.1 uM incubated for 18 hrs by CLSI protocol based assay (reference value: 512 ug/ml)", "assay_type": "functional", "conditions": "Pseudomonas aeruginosa, 114228, 18 h"}, "Pseudomonas aeruginosa [7]": {"tested_on": "Pseudomonas aeruginosa", "assay": "Synergistic antibacterial activity against wild type Pseudomonas aeruginosa PAO1 assessed as potentiation of novobiocin-induced antibacterial effect incubated for 18 hrs by checkerboard assay", "assay_type": "functional, organism-based"}, "Enterobacter cloacae [8]": {"tested_on": "Enterobacter cloacae", "assay": "Potentiation of novobiocin-induced antibacterial activity against colistin-resistant Enterobacter cloacae 118568 clinical solate assessed as novobiocin MIC at <= 7.1 uM incubated for 18 hrs by CLSI protocol based assay (reference value: 1024 ug/ml)", "assay_type": "functional", "conditions": "Enterobacter cloacae, 118568, 18 h"}, "Pseudomonas aeruginosa [9]": {"tested_on": "Pseudomonas aeruginosa", "assay": "Synergistic antibacterial activity against wild type Pseudomonas aeruginosa PAO1 assessed as potentiation of rifampicin-induced antibacterial effect incubated for 18 hrs by checkerboard assay relative to rifampicin alone", "assay_type": "functional"}, "[10]": {"assay": "Toxicity in Galleria mellonella larvae MDR Acinetobacter baumannii isolate assessed as mortality at 100 mg/kg measured after 24 hrs relative to control", "assay_type": "ADME, organism-based", "conditions": "in vivo, read-out: Activity"}, "Acinetobacter baumannii [11]": {"tested_on": "Acinetobacter baumannii", "assay": "Antibacterial activity against wild type Acinetobacter baumannii ATCC 17978 by checkerboard assay", "assay_type": "functional"}, "Pseudomonas aeruginosa [12]": {"tested_on": "Pseudomonas aeruginosa", "assay": "Antibacterial activity against Pseudomonas aeruginosa 259-96918 clinical isolate incubated for 18 hrs by CLSI protocol based assay", "assay_type": "functional", "conditions": "259-96918, 18 h"}, "Acinetobacter baumannii [13]": {"tested_on": "Acinetobacter baumannii", "assay": "Antibacterial activity against colistin-resistant Acinetobacter baumannii ATCC 17978 mutant generated from seven serial passages by checkerboard assay", "assay_type": "functional"}, "Klebsiella pneumoniae [14]": {"tested_on": "Klebsiella pneumoniae", "assay": "Antibacterial activity against Klebsiella pneumoniae 116381 clinical isolate incubated for 18 hrs by CLSI protocol based assay", "assay_type": "functional", "conditions": "Klebsiella pneumoniae, 116381, 18 h"}, "Klebsiella pneumoniae [15]": {"tested_on": "Klebsiella pneumoniae", "assay": "Potentiation of novobiocin-induced antibacterial activity against Klebsiella pneumoniae 116381 clinical isolate assessed as fold reduction in novobiocin MIC incubated for 18 hrs by CLSI protocol based assay relative to novobiocin MIC", "assay_type": "functional"}, "Acinetobacter baumannii [16]": {"tested_on": "Acinetobacter baumannii", "assay": "Potentiation of novobiocin-induced antibacterial activity against colistin-resistant Acinetobacter baumannii 92247 clinical isolate assessed as novobiocin MIC at <= 7.1 uM incubated for 18 hrs by CLSI protocol based assay (reference value: 4 ug/ml)", "assay_type": "functional", "conditions": "Acinetobacter baumannii, 92247, 18 h"}, "Pseudomonas aeruginosa [17]": {"tested_on": "Pseudomonas aeruginosa", "assay": "Potentiation of novobiocin-induced antibacterial activity against carbapenem-resistant Pseudomonas aeruginosa 259-96918 clinical isolate assessed as fold reduction in novobiocin MIC incubated for 18 hrs by CLSI protocol based assay relative to novobiocin MIC", "assay_type": "functional"}, "[18]": {"assay": "Toxicity in Galleria mellonella larvae assessed as survivability at 200 mg/kg measured every 6 hrs for 72 hrs", "assay_type": "organism-based", "conditions": "in vivo"}, "Pseudomonas aeruginosa [19]": {"tested_on": "Pseudomonas aeruginosa", "assay": "Synergistic antibacterial activity against wild type Pseudomonas aeruginosa PAO1 assessed as potentiation of minocycline-induced antibacterial effect incubated for 18 hrs by checkerboard assay", "assay_type": "functional, organism-based"}, "Pseudomonas aeruginosa [20]": {"tested_on": "Pseudomonas aeruginosa", "assay": "Synergistic antibacterial activity against wild type Pseudomonas aeruginosa PAO1 assessed as potentiation of clindamycin-induced antibacterial effect incubated for 18 hrs by checkerboard assay", "assay_type": "functional, organism-based"}, "Pseudomonas aeruginosa [21]": {"tested_on": "Pseudomonas aeruginosa", "assay": "Synergistic antibacterial activity against wild type Pseudomonas aeruginosa PAO1 assessed as potentiation of ceftazidime-induced antibacterial effect incubated for 18 hrs by checkerboard assay", "assay_type": "functional, organism-based"}, "HepG2": {"tested_on": "HepG2", "assay": "Cytotoxicity against human HepG2 cells at 50 uM incubated for 48 hrs by PrestoBlue dye based fluorescence assay", "assay_type": "cell-based", "conditions": "hepg2, 48 h"}, "Pseudomonas aeruginosa [22]": {"tested_on": "Pseudomonas aeruginosa", "assay": "Potentiation of novobiocin-induced antibacterial activity against carbapenem-resistant Pseudomonas aeruginosa 262-101856 clinical isolate assessed as novobiocin MIC at <= 7.1 uM incubated for 18 hrs by CLSI protocol based assay (reference value: 512 ug/ml)", "assay_type": "functional", "conditions": "262-101856, 18 h"}, "Erythrocyte": {"tested_on": "Erythrocyte", "assay": "Hemolytic activity against porcine erythrocytes assessed as hemoglobin release at 1024 ug/ml incubated for 1 hr by microplate reader analysis", "assay_type": "ADME, cell-based, Sus scrofa", "conditions": "pig"}, "Klebsiella pneumoniae [23]": {"tested_on": "Klebsiella pneumoniae", "assay": "Potentiation of novobiocin-induced antibacterial activity against colistin-resistant Klebsiella pneumoniae 113250 clinical isolate assessed as fold reduction in novobiocin MIC incubated for 18 hrs by CLSI protocol based assay relative to novobiocin MIC", "assay_type": "functional"}, "Pseudomonas aeruginosa [24]": {"tested_on": "Pseudomonas aeruginosa", "assay": "Synergistic antibacterial activity against wild type Pseudomonas aeruginosa PAO1 assessed as potentiation of minocycline-induced antibacterial effect incubated for 18 hrs by checkerboard assay relative to minocycline alone", "assay_type": "functional"}, "Escherichia coli": {"tested_on": "Escherichia coli", "assay": "Antibacterial activity against wild type Escherichia coli ATCC 25922 incubated for 18 hrs by CLSI protocol based assay", "assay_type": "functional", "conditions": "ATCC 25922, 18 h"}, "Acinetobacter baumannii [25]": {"tested_on": "Acinetobacter baumannii", "assay": "Potentiation of novobiocin-induced antibacterial activity against Acinetobacter baumannii LAC-4 clinical isolate assessed as novobiocin MIC at <= 7.1 uM incubated for 18 hrs by CLSI protocol based assay (reference value: 8 ug/ml)", "assay_type": "functional", "conditions": "LAC-4, 18 h"}, "Acinetobacter baumannii [26]": {"tested_on": "Acinetobacter baumannii", "assay": "Antibacterial activity against wild type Acinetobacter baumannii ATCC 17978 assessed as resistant development at 7.1 uM in presence of novobiocin by microbroth dilution method relative to control", "assay_type": "functional"}, "Pseudomonas aeruginosa [27]": {"tested_on": "Pseudomonas aeruginosa", "assay": "Antibacterial activity against colistin and carbapenem-resistant Pseudomonas aeruginosa 101243 clinical isolate incubated for 18 hrs by CLSI protocol based assay", "assay_type": "functional", "conditions": "Pseudomonas aeruginosa, 101243, 18 h"}, "Pseudomonas aeruginosa [28]": {"tested_on": "Pseudomonas aeruginosa", "assay": "Synergistic antibacterial activity against wild type Pseudomonas aeruginosa PAO1 assessed as potentiation of aztreonam-induced antibacterial effect incubated for 18 hrs by checkerboard assay relative to aztreonam alone", "assay_type": "functional"}, "Pseudomonas aeruginosa [29]": {"tested_on": "Pseudomonas aeruginosa", "assay": "Potentiation of novobiocin-induced antibacterial activity against mexAB-oprM mutant deficient Pseudomonas aeruginosa PAO200 assessed as novobiocin MIC at <= 7.1 uM incubated for 18 hrs by CLSI protocol based assay (reference value: 32 ug/ml)", "assay_type": "functional", "conditions": "PAO200, 18 h"}, "Pseudomonas aeruginosa [30]": {"tested_on": "Pseudomonas aeruginosa", "assay": "Synergistic antibacterial activity against wild type Pseudomonas aeruginosa PAO1 assessed as potentiation of colistin-induced antibacterial effect at <=7.1 uM incubated for 18 hrs by checkerboard assay", "assay_type": "functional, organism-based"}, "Enterobacter cloacae [31]": {"tested_on": "Enterobacter cloacae", "assay": "Potentiation of novobiocin-induced antibacterial activity against colistin-resistant Enterobacter cloacae 121187 clinical solate assessed as novobiocin MIC at <= 7.1 uM incubated for 18 hrs by CLSI protocol based assay (reference value: 64 ug/ml)", "assay_type": "functional", "conditions": "Enterobacter cloacae, 121187, 18 h"}}, "note": "Calls of active or inactive are those of the source. The calls are words filed in the database; no cut-off is given here.", "data": [{"smiles": "NC[C@H]1O[C@H](O[C@H]2[C@H](OCCCCc3cn(CCCCO[C@@H]4[C@@H](O[C@H]5O[C@H](CO)[C@@H](O)[C@H](N)[C@H]5O)[C@H](N)C[C@H](N)[C@H]4O[C@H]4O[C@H](CN)[C@@H](O)C[C@H]4N)nn3)[C@@H](O[C@H]3O[C@H](CO)[C@@H](O)[C@H](N)[C@H]3O)[C@H](N)C[C@@H]2N)[C@H](N)C[C@@H]1O.O=C(O)C(F)(F)F.O=C(O)C(F)(F)F.O=C(O)C(F)(F)F.O=C(O)C(F)(F)F.O=C(O)C(F)(F)F.O=C(O)C(F)(F)F.O=C(O)C(F)(F)F.O=C(O)C(F)(F)F.O=C(O)C(F)(F)F.O=C(O)C(F)(F)F", "values": [{"measurement": "Ratio", "setting": "Acinetobacter baumannii [1]", "value": 256}, {"measurement": "MIC", "setting": "Acinetobacter baumannii [2]", "value": 16, "unit": "µg/mL"}, {"measurement": "Activity", "setting": "Pseudomonas aeruginosa [3]", "value": -9.48, "unit": "CFU/ml"}, {"measurement": "Activity", "setting": "Pseudomonas aeruginosa [4]", "value": "Dose-dependent effect"}, {"measurement": "fold change (FC)", "setting": "Acinetobacter baumannii [5]", "value": 16}, {"measurement": "MIC", "setting": "Pseudomonas aeruginosa [6]", "value": 16, "unit": "µg/mL"}, {"measurement": "Activity", "setting": "Pseudomonas aeruginosa [7]", "value": "Dose-dependent effect"}, {"measurement": "MIC", "setting": "Enterobacter cloacae [8]", "value": 32, "unit": "µg/mL"}, {"measurement": "fold change (FC)", "setting": "Pseudomonas aeruginosa [9]", "value": "4 - 128"}, {"measurement": "mortality at 24 h", "setting": "[10]", "value": 100, "unit": "%"}, {"measurement": "MIC", "setting": "Acinetobacter baumannii [11]", "value": 0.5, "unit": "µg/mL"}, {"measurement": "MIC", "setting": "Pseudomonas aeruginosa [12]", "value": "> 128", "unit": "µg/mL"}, {"measurement": "MIC", "setting": "Acinetobacter baumannii [13]", "value": "< 0.031", "unit": "µg/mL"}, {"measurement": "MIC", "setting": "Klebsiella pneumoniae [14]", "value": "> 128", "unit": "µg/mL"}, {"measurement": "Ratio", "setting": "Klebsiella pneumoniae [15]", "value": 128}, {"measurement": "MIC", "setting": "Acinetobacter baumannii [16]", "value": 0.25, "unit": "µg/mL"}, {"measurement": "Ratio", "setting": "Pseudomonas aeruginosa [17]", "value": 64}, {"measurement": "Activity", "setting": "[18]", "value": "Non-Toxic"}, {"measurement": "Activity", "setting": "Pseudomonas aeruginosa [19]", "value": "Dose-dependent effect"}, {"measurement": "Activity", "setting": "Pseudomonas aeruginosa [20]", "value": "Dose-dependent effect"}, {"measurement": "Activity", "setting": "Pseudomonas aeruginosa [21]", "value": "Dose-dependent effect"}, {"measurement": "Activity", "setting": "HepG2", "value": "Non-Toxic"}, {"measurement": "MIC", "setting": "Pseudomonas aeruginosa [22]", "value": 8, "unit": "µg/mL"}, {"measurement": "Activity", "setting": "Erythrocyte", "value": "Non-Toxic"}, {"measurement": "Ratio", "setting": "Klebsiella pneumoniae [23]", "value": 32}, {"measurement": "fold change (FC)", "setting": "Pseudomonas aeruginosa [24]", "value": "4 - 128"}, {"measurement": "MIC", "setting": "Escherichia coli", "value": "> 128", "unit": "µg/mL"}, {"measurement": "MIC", "setting": "Acinetobacter baumannii [25]", "value": 0.5, "unit": "µg/mL"}, {"measurement": "fold change (FC)", "setting": "Acinetobacter baumannii [26]", "value": 2}, {"measurement": "MIC", "setting": "Pseudomonas aeruginosa [27]", "value": "> 128", "unit": "µg/mL"}, {"measurement": "fold change (FC)", "setting": "Pseudomonas aeruginosa [28]", "value": "4 - 128"}, {"measurement": "MIC", "setting": "Pseudomonas aeruginosa [29]", "value": 0.125, "unit": "µg/mL"}, {"measurement": "Activity", "setting": "Pseudomonas aeruginosa [30]", "value": "inactive"}, {"measurement": "MIC", "setting": "Enterobacter cloacae [31]", "value": 8, "unit": "µg/mL"}]}]}
